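Compound exposure: 48 hours, 5 concentrations, 96-well plates. GI50: concentration for 50% inhibition of growth. At the TGI there is no net growth.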
How the values were obtained:
Experiment in all cases: DTP human tumour cell line panel, 48 h
[1] = system: MOLT-4 leukemia
[2] = system: RXF 393 renal
[3] = system: SK-OV-3 ovarian
[4] = system: UACC-62 melanoma
[5] = system: SF-539 CNS
[6] = system: DMS 114 small cell lung
[7] = system: SNB-19 CNS
[8] = system: NCI-H522 lung
[9] = system: CCRF-CEM leukemia
[10] = system: KM12 colon
[11] = system: IGROV1 ovarian
[12] = system: A549 NSCLC
[13] = system: HL-60(TB) leukemia
[14] = system: SNB-75 CNS
[15] = system: A498 renal
[16] = system: HOP-62 NSCLC
[17] = system: HOP-92 NSCLC
[18] = system: LOX IMVI melanoma
[19] = system: SK-MEL-28 melanoma
[20] = system: RPMI-8226 leukemia
[21] = system: U251 CNS
[22] = system: TK-10 renal
[23] = system: SK-MEL-2 melanoma
[24] = system: COLO 205 colon
[25] = system: SN12C renal
[26] = system: SK-MEL-5 melanoma
[27] = system: M14 melanoma
[28] = system: UO-31 renal
[29] = system: DMS 273 small cell lung
[30] = system: NCI-H226 lung
[31] = system: KM20L2 colon
[32] = system: HCT-15 colon
[33] = system: UACC-257 melanoma
[34] = system: NCI-H23 lung
[35] = system: XF 498 CNS
[36] = system: EKVX NSCLC
[37] = system: ACHN renal
[38] = system: HOP-18 NSCLC
[39] = system: OVCAR-8 ovarian
[40] = system: SF-295 CNS
[41] = system: NCI-H460 lung
[42] = system: HCC-2998 colon
[43] = system: K-562 leukemia
[44] = system: SW-620 colon
[45] = system: OVCAR-5 ovarian
[46] = system: OVCAR-4 ovarian
[47] = system: SR leukemia
[48] = system: HCT-116 colon
[49] = system: OVCAR-3 ovarian
[50] = system: HT29 colon
[51] = system: DLD-1 colon
[52] = system: LXFL 529 NSCLC
[53] = system: CAKI-1 renal
[54] = system: MALME-3M melanoma
[55] = system: 786-0 renal
[56] = system: SF-268 CNS

C/C=C/CC(S(=O)(=O)c1ccccc1)S(=O)(=O)c1ccccc1
TGI [1]: > 100 µM
TGI [2]: > 100 µM
TGI [3]: > 100 µM
TGI [4]: > 100 µM
TGI [5]: > 100 µM
TGI [6]: 81.8 µM
TGI [7]: > 100 µM
TGI [8]: > 100 µM
TGI [9]: > 100 µM
TGI [10]: > 100 µM
TGI [11]: > 100 µM
TGI [12]: > 100 µM
TGI [13]: > 100 µM
TGI [14]: > 100 µM
TGI [15]: > 100 µM
TGI [16]: > 100 µM
TGI [17]: > 100 µM
TGI [18]: > 100 µM
TGI [19]: > 100 µM
TGI [20]: > 100 µM
TGI [21]: > 100 µM
TGI [22]: > 100 µM
TGI [23]: > 100 µM
TGI [24]: > 100 µM
TGI [25]: > 100 µM
TGI [26]: > 100 µM
TGI [27]: > 100 µM
TGI [28]: > 100 µM
TGI [29]: > 100 µM
TGI [30]: > 100 µM
TGI [31]: > 100 µM
TGI [32]: > 100 µM
TGI [33]: > 100 µM
TGI [34]: > 100 µM
TGI [35]: > 100 µM
TGI [36]: > 100 µM
TGI [37]: > 100 µM
TGI [38]: > 100 µM
TGI [39]: > 100 µM
TGI [40]: > 100 µM
TGI [41]: > 100 µM
TGI [42]: > 100 µM
TGI [43]: > 100 µM
TGI [44]: > 100 µM
TGI [45]: > 100 µM
TGI [46]: > 100 µM
TGI [47]: > 100 µM
TGI [48]: > 100 µM
TGI [49]: > 100 µM
TGI [50]: > 100 µM
TGI [51]: > 100 µM

COc1cccc(C=O)c1[O-].COc1cccc(C=O)c1[O-].[Cu+2]
TGI [1]: 18.6 µM
TGI [3]: 31.8 µM
TGI [5]: 41.4 µM
TGI [6]: 1.2 µM
TGI [7]: 31.2 µM
TGI [8]: 19.3 µM
TGI [9]: 28.3 µM
TGI [10]: 30.7 µM
TGI [12]: 55 µM
GI50 [13]: 21.7 µM
TGI [13]: 46 µM
TGI [14]: 35.4 µM
TGI [15]: 39.4 µM
TGI [16]: 31.7 µM
TGI [17]: 28 µM
TGI [18]: 37.6 µM
TGI [19]: 28.5 µM
TGI [20]: 41.4 µM
TGI [21]: 35.4 µM
TGI [23]: 12.8 µM
TGI [52]: 16.5 µM
TGI [24]: 20.8 µM
TGI [25]: 34 µM
GI50 [53]: 2.83 µM
TGI [53]: 10.3 µM
TGI [26]: 6.27 µM
TGI [27]: 31.4 µM
TGI [29]: 36.2 µM
TGI [30]: 68.2 µM
TGI [31]: 32.3 µM
TGI [32]: 19.8 µM
GI50 [35]: 6.8 µM
TGI [35]: 19.2 µM
TGI [36]: 77.7 µM
TGI [37]: 30.5 µM
TGI [38]: 26.8 µM
TGI [39]: 44.7 µM
TGI [54]: 20.1 µM
TGI [55]: 31.9 µM
TGI [40]: > 100 µM
TGI [41]: 73.8 µM
TGI [42]: 29 µM
TGI [43]: 17.9 µM
TGI [44]: 36.3 µM
TGI [56]: 35.3 µM
TGI [46]: 6.85 µM
TGI [48]: 30.1 µM
TGI [49]: 21 µM
TGI [50]: 46.8 µM
TGI [51]: 23.7 µM
